Results as given in patent US9096591B2, “Tetracyclic compounds” (Medivation Technologies, Inc., priority 2007, dated 2015).

Tests used:
[1] = target: T1, human recombinant adrenergic α2A receptor (Homo sapiens, UniProt P08913); assay: Adrenergic α2A radioligand binding ([3H]MK-912); parameters: Inhibition of ligand binding, Adren. alpha2A: concentration or dose not given beside the values; conditions: percent inhibition of specific binding
T1 construct: expressed in transfected cells; host or cells: insect Sf9 cells
T1 sequence (P08913 1-465): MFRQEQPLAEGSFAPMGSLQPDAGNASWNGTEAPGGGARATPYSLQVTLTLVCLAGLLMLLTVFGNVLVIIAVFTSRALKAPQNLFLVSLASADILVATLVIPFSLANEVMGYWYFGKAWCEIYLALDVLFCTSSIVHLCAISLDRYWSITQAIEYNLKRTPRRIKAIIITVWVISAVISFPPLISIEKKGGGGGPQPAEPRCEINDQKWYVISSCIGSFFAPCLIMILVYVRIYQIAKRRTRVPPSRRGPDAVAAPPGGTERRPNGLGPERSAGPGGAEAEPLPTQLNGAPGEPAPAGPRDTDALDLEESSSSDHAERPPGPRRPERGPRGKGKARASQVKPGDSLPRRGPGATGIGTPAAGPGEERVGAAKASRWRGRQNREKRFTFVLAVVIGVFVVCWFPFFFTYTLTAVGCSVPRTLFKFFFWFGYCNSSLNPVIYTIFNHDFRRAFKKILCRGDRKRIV
Method in brief: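 Membranes from Sf9 cells expressing the receptor were incubated with 1 nM [3H]MK-912 for 60 minutes at 25° C in 50 mM Tris-HCl pH 7.4, 12.5 mM MgCl2, 2 mM EDTA. 10 μM WB-4101 defined non-specific binding. Values are percent inhibition of specific bound radioactivity after filtration.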

[2] = target: T2, human recombinant serotonin (5-Hydroxytryptamine) 5-HT6 receptor (Homo sapiens, UniProt P50406); assay: Serotonin 5-HT6 radioligand binding ([3H]LSD); parameters: Inhibition of ligand binding, Ser. 5-HT6: concentration or dose not given beside the values; conditions: percent inhibition of specific binding
T2 construct: expressed in transfected cells; host or cells: human HeLa cells
Text: Receptor proteins were filtered and washed, the filters were then counted to determine [3H]LSD specifically bound. […] Biochemical assay results are presented as the percent inhibition of specific binding in Table 6.

[3] = target: T3, human recombinant histamine H1 receptor (Homo sapiens, UniProt P35367); assay: Histamine H1 radioligand binding ([3H]Pyrilamine); conditions: percent inhibition of specific binding; screened at 1 μM; read-out: Inhibition of ligand binding, Hist. H1
T3 construct: expressed in transfected cells; host or cells: CHO cells
Method in brief: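 CHO-expressed receptor in modified Tris-HCl buffer (50 mM, pH 7.4; 2 mM MgCl2, 100 mM NaCl, 250 mM sucrose); bound ligand measured after filtration and washing.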

[4] = target: T4, human recombinant dopamine D2L receptor (Homo sapiens, UniProt P14416); assay: Dopamine D2L radioligand binding ([3H]Spiperone); conditions: percent inhibition of specific binding
T4 construct: expressed in transfected cells; host or cells: CHO cells
Experimental: Non-specific binding was estimated in the presence of 10 μM Haloperidol. Receptor proteins were filtered and washed, the filters were then counted to determine [^3H]Spiperone specifically bound. […] Biochemical assay results are presented as the percent inhibition of specific binding in Table 6.

T3 sequence (P35367 whole entry): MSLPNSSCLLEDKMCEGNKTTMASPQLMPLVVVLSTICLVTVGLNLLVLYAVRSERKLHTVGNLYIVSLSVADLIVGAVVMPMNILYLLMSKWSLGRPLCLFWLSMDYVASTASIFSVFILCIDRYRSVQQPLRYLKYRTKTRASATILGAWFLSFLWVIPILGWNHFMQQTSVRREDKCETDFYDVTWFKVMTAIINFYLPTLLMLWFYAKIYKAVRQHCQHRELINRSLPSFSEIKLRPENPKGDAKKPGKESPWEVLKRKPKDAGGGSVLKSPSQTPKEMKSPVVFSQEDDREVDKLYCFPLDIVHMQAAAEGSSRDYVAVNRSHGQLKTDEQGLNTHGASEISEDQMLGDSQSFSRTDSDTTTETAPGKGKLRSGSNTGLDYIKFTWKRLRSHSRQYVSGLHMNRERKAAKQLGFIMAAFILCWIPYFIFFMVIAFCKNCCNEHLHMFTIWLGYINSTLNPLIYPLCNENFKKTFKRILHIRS
T4 sequence (P14416 whole entry): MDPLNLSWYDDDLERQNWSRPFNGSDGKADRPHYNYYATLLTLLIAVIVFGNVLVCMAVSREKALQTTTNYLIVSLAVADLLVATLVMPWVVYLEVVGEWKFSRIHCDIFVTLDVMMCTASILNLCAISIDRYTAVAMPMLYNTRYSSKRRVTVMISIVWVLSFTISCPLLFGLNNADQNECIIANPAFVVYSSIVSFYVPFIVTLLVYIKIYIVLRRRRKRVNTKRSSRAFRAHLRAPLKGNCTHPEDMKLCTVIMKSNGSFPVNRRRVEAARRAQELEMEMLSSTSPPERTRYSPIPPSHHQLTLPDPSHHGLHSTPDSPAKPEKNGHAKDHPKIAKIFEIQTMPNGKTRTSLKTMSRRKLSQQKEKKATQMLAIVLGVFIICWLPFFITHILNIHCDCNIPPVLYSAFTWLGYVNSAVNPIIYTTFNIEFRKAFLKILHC
T2 sequence (P50406 whole entry): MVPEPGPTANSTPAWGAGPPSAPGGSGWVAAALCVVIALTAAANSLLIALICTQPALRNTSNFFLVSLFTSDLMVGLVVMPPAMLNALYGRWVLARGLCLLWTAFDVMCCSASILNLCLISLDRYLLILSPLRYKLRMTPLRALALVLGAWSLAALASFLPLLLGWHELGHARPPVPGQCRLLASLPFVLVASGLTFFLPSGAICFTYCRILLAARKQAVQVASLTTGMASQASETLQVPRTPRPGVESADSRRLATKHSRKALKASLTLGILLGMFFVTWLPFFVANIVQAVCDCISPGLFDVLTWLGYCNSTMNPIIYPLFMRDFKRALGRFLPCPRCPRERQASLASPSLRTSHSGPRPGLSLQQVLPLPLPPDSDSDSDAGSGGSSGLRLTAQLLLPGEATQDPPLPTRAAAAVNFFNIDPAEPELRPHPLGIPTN

SMILES | Inhibition of ligand binding, Adren. alpha2A [1] | Inhibition of ligand binding, Ser. 5-HT6 [2] | inhibition at 1 µM [3] | Inhibition of ligand binding, Dop. D2L [4]
Cc1ccc2c(c1)c1c(n2CC(=O)N2Cc3ccccc3C2)CCN(C)C1 [Compound 397, 2-(1,2,3,4-tetrahydro-2,8-dimethylpyrido[4,3-b]indol-5-yl)-1-(isoindolin-2-yl)ethanone] | 16% | −9% | 77% | 5%
Cc1ncc(CCn2c3c(c4cc(C(C)C)ccc42)CN(C)CC3)cn1 [Compound 370, 8-Isopropyl-2-methyl-5-[2-(2-methyl-pyrimidin-5-yl)-ethyl]-2,3,4,5-tetrahydro-1H-pyrido[4,3-b]indole] | 35% | 64% | 85% | 10%
CN1CCc2c(c3cc(Cl)ccc3n2CCN2CCCCC2)C1 [Compound 189] | 76% | 66% | 94% | 0%
Cc1ccc2c(c1)c1c(n2CC(=O)N2CCc3ccccc3C2)CCN(C)C1 [Compound 398, 2-(1,2,3,4-tetrahydro-2,8-dimethylpyrido[4,3-b]indol-5-yl)-1-(3,4-dihydroisoquinolin-2(1H)-yl)ethanone] | 23% | 15% | 76% | 8%
CN1CCc2c(c3cc(F)ccc3n2CCc2ccc(Cl)cc2)C1 [Compound 249] | 97% | 101% | 100% | 64%
Cc1ccc2c(c1)c1c(n2CC(=O)N2CCSCC2)CCN(C)C1 [Compound 399, 2-(1,2,3,4-tetrahydro-2,8-dimethylpyrido[4,3-b]indol-5-yl)-1-thiomorpholinoethanone] | 16% | −5% | 42% | 0%
Cc1ccc2c(c1)c1c(n2CCc2cncc(C(F)(F)F)c2)CCN(C)C1 [Compound 425, 5-(2-(5-(trifluoromethyl)pyridin-3-yl)ethyl)-2,3,4,5-tetrahydro-2,8-dimethyl-1H-pyrido[4,3-b]indole] | 49% | 64% | 100% | −1%
Cc1ncc(CCn2c3c(c4cc(Cl)ccc42)CN(C)CC3)cn1 [Compound 361, 8-Chloro-2-methyl-5-[2-(2-methyl-pyrimidin-5-yl)-ethyl]-2,3,4,5-tetrahydro-1H-pyrido[4,3-b]indole] | 30% | 76% | 106% | 31%
CN1CCN(CCn2c3c(c4cc(Cl)ccc42)CN(C)CC3)CC1 [Compound 417, 8-chloro-2,3,4,5-tetrahydro-2-methyl-5-(2-(4-methylpiperazin-1-yl)ethyl)-1H-pyrido[4,3-b]indole] | 28% | 5% | 10% | −12%
CN1CCc2c(c3cc(Cl)c(F)cc3n2CCc2ccc(C(F)(F)F)nc2)C1 [Compound 343] | 90% | 57% | 98% | −7%
Cc1cncc(CCn2c3c(c4cc(C)ccc42)CN(C)CC3)c1 [Compound 429, 2,3,4,5-tetrahydro-2,8-dimethyl-5-(2-(5-methylpyridin-3-yl)ethyl)-1H-pyrido[4,3-b]indole] | 67% | 79% | 100% | 23%
CN1CCc2c(c3cc(Cl)cc(F)c3n2CCc2ccc(C(F)(F)F)nc2)C1 [Compound 338, 8-chloro-6-fluoro-5-(2-(6-(trifluoromethyl)pyridin-3-yl)ethyl)-2,3,4,5-tetrahydro-2-methyl-1H-pyrido[4,3-b]indole] | 99% | 66% | 96% | 22%
Cc1ccc2c(c1)c1c(n2CC(=O)N2CCN(C)CC2)CCN(C)C1 [Compound 459, 2-(1,2,3,4-tetrahydro-2,8-dimethylpyrido[4,3-b]indol-5-yl)-1-(4-methylpiperazin-1-yl)ethanone] | −9% | −10% | 0% | −7%
CCc1ccc2c(c1)c1c(n2CCc2ccc(C(F)(F)F)nc2)CCN(C)C1 [Compound 358, 8-Ethyl-2-methyl-5-[2-(6-trifluoromethyl-pyridin-3-yl)-ethyl]-2,3,4,5-tetrahydro-1H-pyrido[4,3-b]indole] | 96% | 65% | 94% | 38%
Cc1ccc2c(c1)c1c(n2CCc2cncnc2)CCN(C)C1 [Compound 387, 2,8-Dimethyl-5-(2-pyrimidin-5-yl-ethyl)-2,3,4,5-tetrahydro-1H-pyrido[4,3-b]indole] | 12% | 79% | 97% | 1%
Cc1cccc2c3c(n(CCc4ccc(C(F)(F)F)nc4)c12)CCN(C)C3 [Compound 380, 5-(2-(6-(trifluoromethyl)pyridin-3-yl)ethyl)-2,3,4,5-tetrahydro-2,6-dimethyl-1H-pyrido[4,3-b]indole] | 78% | 39% | 68% | −5%
CCc1ccc2c(c1)c1c(n2CCc2cnc(C)nc2)CCN(C)C1 [Compound 362, 8-Ethyl-2-methyl-5-[2-(2-methyl-pyrimidin-5-yl)-ethyl]-2,3,4,5-tetrahydro-1H-pyrido[4,3-b]indole] | 14% | 61% | 98% | 17%
Cc1ccc2c(c1)c1c(n2CC(=O)N2CCCC(C)C2)CCN(C)C1 (stereo not shown) [Compound 401, 2-(1,2,3,4-tetrahydro-2,8-dimethylpyrido[4,3-b]indol-5-yl)-1-(3-methylpiperidin-1-yl)ethanone] | 3% | 1% | 36% | −12%
CC(C)c1ccc2c(c1)c1c(n2CCc2ccc(C(F)(F)F)nc2)CCN(C)C1 [Compound 342, 8-Isopropyl-2-methyl-5-[2-(6-trifluoromethyl-pyridin-3-yl)-ethyl]-2,3,4,5-tetrahydro-1H-pyrido[4,3-b]indole] | 94% | 72% | 80% | 29%
Cc1ccc(CCn2c3c(c4cc(C(=O)O)ccc42)CN(C)CC3)cn1 [Compound 256, 2-Methyl-5-(2-(6-methylpyridin-3-yl)ethyl)-2,3,4,5-tetrahydro-1H-pyrido[4,3-b]indole-8-carboxylic acid] | −7% | 2% | -1% | –
